Experimental data reported in article PMC5826917, “A small molecule inhibitor of Nicotinamide N-methyltransferase for the treatment of metabolic disorders” (Scientific Reports, 2018).
pIC50: −log10 of the molar value.

What was measured:
[1] = biological target: T1, monkey NNMT (mkNNMT) (Macaca mulatta, UniProt F7ERX8); experiment: Fluorescence based NNMT enzymatic assay (monkey); conditions: fluorescence based biochemical assay
T1 construct: made in house
Experimental: NNMT activity was measured with the fluorescence enzymatic assay[22],[23]. MNA formed in the NNMT reaction reacts with acetophenone in the presence of KOH and formic acid and forms a fluorescent product 2, 7- naphthyridine. JBSNF-000088 was screened using human, mouse and monkey NNMT enzymes. Different concentrations of inhibitors were preincubated along with the enzyme for 30 minutes at room temperature. Reaction was initiated by addition of SAM and nicotinamide mixture (7 µM, 20 µM, 8 µM SAM and 6 µM, 20 µM, 9 µM nicotinamide for human, mouse and monkey NNMT assays respectively) for 60 minutes at 37 °C. The final assay reaction mixture contained a buffer of 100 mM Tris Hcl pH 7.5, 0.04% BSA, 2 mM dithiothreitol and 1% DMSO. At the end of the incubation, the reaction was stopped by the addition of ethanol: acetophenone mix (75% ethanol: 25% acetophenone) and 5 M potassium hydroxide prepared with 50% ethanol. The reaction was incubated for 15 minutes following which 100 µL of 60% formic acid was added. […] The fluorescent product 2, 7- naphthyridine was measured using a Tecan reader with excitation at 375 nm and emission at 430 nm. The IC50 values were determined by fitting the inhibition curves (percent inhibition versus inhibitor concentration) using a four parametric sigmoidal dose response using GraphPad Prism software.

[2] = system: human NNMT; experiment: Thermal shift assay, human NNMT; assay type: binding; conditions: in presence of SAM, molar ratio enzyme:SAM:compound ~1:5:10
Experimental: Thermal shift assay experiments were carried out as described previously.

[3] = system: plasma MNA levels
Experimental: Samples for MNA were analyzed employing a fit-for-purpose LC-MS/MS method. PE-Sciex API-4000 triple quadrupole (PerkinElmerSciex Instruments, Boston, MA) mass spectrometer was employed for this analysis. Samples (5 µL) were injected onto Kinetex HILIC (50 × 4.6 mm, 2.6 µm; Phenomenex, Torrance, CA, USA) column connected to Shimadzu VP (Shimadzu, Japan) LC system. The gradient mobile phase mixture of 0.2% formic acid and acetonitrile was delivered at a flow rate of 0.45 ml min-1 into the mass spectrometer electrospray ionization (ESI) chamber. Quantitation was achieved by MS/MS detection in positive ion mode for MNA and internal standard (d4–MNA). Detection of the ions was performed in the multiple reaction monitoring (MRM) mode, monitoring the transition of the m/z 137 precursor ion to the m/z 92 product ion for MNA and m/z 141 precursor ion to the m/z 84 product ion for d4-MNA (internal standard).
A simple protein precipitation extraction method was followed for extraction of N-methylnicotinamide from plasma and various tissue homogenate samples. The tissue samples were homogenized with 1:3 proportions of phosphate buffer saline (PBS) and this homogenate was used for N-Methylnicotinamide determinations. […] The supernatant was separated and transferred to pre-labeled HPLC vials and analyzed by LC-MS/MS system.

[4] = system: wild-type and NNMT knockout mice on HFD
Source text: NNMT fl/fl mice on a C57BL/6 background were generated by Regeneron Pharmaceuticals (Tarrytown, NY) using VelociGene® technology. A loxP locus was placed 1.6 kb upstream of the transcription starting site encompassing the gene promoter. A loxP-Frt-Hyg-Frt cassette was inserted 212 bp downstream of NNMT exon 1. The floxed coordinates were chr9:48,412,881–48,414,698. NNMT fl/fl mice were crossed with ZP3-cre mice (C57BL/6, Jackson Laboratories) to generate whole-body NNMT knockout mice. The DIO mouse study was conducted in accordance to the German Animal Protection Law, as well as according to international animal welfare legislation and rules. Female wild-type and NNMT knockout animals were put on high-fat diet (Ssniff HFD adjusted TD.97366) for 18 weeks and then treated with either JBSNF-000088 (50 mg/kg bid by oral gavage) or vehicle for four weeks (n = 9–10 per group). Throughout the study, Mice were housed in an environmentally controlled room at 23 °C on a 12 h:12 h light dark cycle (light on at 06:00 AM), and food and water was offered ad libitum. An oral glucose tolerance test was performed on day 25 of treatment: Animals were fasted overnight. 60 minutes before an oral glucose bolus (2 g kg^−1), JBSNF-000088 (50 mg kg^−1) or vehicle (0.5% HEC + 0.5% Tween80) was administered by oral gavage. For blood glucose analysis, blood was collected from the tail of conscious mice at time points 15, 30, 60 and 120 minutes after the glucose bolus.

[5] = biological target: adrenergic, alpha-1A-, receptor (ADRA1A) (Homo sapiens, UniProt P35348); experiment: Selectivity panel: ADRA1A; assay type: cell-based
Experimental: (§1) Supplement 41598_2018_22081_MOESM1_ESM.docx, table 2: Supplementary table 2: Selectivity profile of JBSNF-000088 (at 10 µM) vs a panel of 34 receptors, channels and enzymes. | column: E% (agonistic); I% (antagonistic or inhibitory)

[6] = biological target: Cannabinoid Receptor 2 (CB2) (Homo sapiens, UniProt P34972); experiment: Selectivity panel: CB2; assay type: cell-based
Experimental: as §1

[7] = biological target: Serotonin Receptor 1A (5HT1A) (Homo sapiens, UniProt P08908); experiment: Selectivity panel: 5HT1A; assay type: cell-based
Experimental: as §1

[8] = biological target: Serotonin receptor 2B (5HT2B (Homo sapiens, UniProt P41595)); experiment: Selectivity panel: 5HT2B; assay type: cell-based
Experimental: as §1

[9] = system: SK+Ca channel-; experiment: Selectivity panel: SK+Ca channel; assay type: binding; conditions: 10 µM
[10] = system: cytochrome P450 enzymes; conditions: 20 µM
[11] = 0.5 h
[12] = C57BL/6, mouse, in vivo, iv
[13] = physchem; conditions: aqueous buffer
[14] = in vitro; conditions: human, Caco-2

adrenergic, alpha-1A-, receptor (ADRA1A), sequence (P35348 whole entry): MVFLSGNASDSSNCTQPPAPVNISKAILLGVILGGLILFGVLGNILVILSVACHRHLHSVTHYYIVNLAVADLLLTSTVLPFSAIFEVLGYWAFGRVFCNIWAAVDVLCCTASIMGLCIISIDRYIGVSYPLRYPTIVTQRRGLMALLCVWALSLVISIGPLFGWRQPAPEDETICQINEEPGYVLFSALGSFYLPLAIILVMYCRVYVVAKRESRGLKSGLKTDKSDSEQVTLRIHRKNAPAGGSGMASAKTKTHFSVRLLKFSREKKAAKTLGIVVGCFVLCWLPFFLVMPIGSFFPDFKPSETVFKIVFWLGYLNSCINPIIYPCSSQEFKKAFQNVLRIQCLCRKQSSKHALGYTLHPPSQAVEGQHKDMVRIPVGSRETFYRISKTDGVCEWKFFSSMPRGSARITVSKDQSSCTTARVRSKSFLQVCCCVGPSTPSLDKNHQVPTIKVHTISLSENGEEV
Cannabinoid Receptor 2 (CB2), sequence (P34972 whole entry): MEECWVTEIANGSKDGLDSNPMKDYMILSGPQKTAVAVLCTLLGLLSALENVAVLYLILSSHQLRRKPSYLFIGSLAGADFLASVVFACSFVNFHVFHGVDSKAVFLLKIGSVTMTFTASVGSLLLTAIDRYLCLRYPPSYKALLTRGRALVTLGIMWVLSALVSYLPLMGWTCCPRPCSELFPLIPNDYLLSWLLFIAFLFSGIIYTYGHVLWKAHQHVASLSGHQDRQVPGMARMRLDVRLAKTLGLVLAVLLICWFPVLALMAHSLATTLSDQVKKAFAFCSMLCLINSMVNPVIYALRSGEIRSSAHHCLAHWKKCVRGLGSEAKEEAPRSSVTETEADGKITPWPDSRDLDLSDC
Serotonin receptor 2B (5HT2B, sequence (P41595 whole entry): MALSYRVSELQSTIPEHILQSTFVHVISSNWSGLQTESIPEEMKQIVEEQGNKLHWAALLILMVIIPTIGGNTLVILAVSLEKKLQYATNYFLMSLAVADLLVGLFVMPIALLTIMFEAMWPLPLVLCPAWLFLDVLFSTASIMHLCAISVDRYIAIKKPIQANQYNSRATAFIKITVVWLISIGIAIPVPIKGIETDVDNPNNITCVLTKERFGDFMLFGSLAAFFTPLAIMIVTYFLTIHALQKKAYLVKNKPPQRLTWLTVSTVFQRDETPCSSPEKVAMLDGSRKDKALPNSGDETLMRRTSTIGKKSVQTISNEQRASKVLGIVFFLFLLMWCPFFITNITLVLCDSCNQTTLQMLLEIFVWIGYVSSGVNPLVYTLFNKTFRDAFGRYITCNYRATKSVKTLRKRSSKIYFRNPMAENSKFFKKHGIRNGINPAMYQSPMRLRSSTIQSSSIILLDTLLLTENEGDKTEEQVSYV
Serotonin Receptor 1A (5HT1A), sequence (P08908 whole entry): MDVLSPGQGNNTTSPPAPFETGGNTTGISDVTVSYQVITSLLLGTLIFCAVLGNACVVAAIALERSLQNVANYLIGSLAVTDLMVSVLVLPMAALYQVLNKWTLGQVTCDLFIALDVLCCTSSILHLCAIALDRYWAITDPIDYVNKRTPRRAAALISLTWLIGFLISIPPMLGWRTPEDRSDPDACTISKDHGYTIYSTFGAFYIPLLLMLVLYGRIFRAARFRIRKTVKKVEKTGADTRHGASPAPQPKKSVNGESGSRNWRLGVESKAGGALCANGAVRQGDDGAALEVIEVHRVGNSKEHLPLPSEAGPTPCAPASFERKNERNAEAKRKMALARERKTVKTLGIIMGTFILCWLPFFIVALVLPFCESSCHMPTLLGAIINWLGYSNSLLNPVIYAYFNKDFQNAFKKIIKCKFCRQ
T1 sequence (F7ERX8 1-264): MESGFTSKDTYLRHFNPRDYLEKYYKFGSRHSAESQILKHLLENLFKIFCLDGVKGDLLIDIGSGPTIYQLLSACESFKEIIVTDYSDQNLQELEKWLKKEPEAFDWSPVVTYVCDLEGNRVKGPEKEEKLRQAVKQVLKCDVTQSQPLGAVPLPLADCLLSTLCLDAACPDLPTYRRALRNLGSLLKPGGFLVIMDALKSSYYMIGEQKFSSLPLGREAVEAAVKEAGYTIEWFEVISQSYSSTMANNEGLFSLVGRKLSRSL

For `COc1ccc(C(N)=O)cn1` [JBSNF-000088, 6-methoxynicotinamide], the pIC50 [1] was 5.55, the “shift in melting temperature (Tm), human NNMT” value [2] was 5 K and the “plasma MNA levels” value ([3]; 50 mg kg^−1 orally, C57BL/6 mice, till 4 h post dosing) was “Significant reductions”. For the same compound, the “reduction of plasma MNA levels” value ([3]; Discussion statement) was ~ 50%, the “insulin level or glucose-handling in NNMT knockout mice” value ([4]; NNMT knockout mice, vs vehicle-treated knockout) was “no differences in insulin level or glucose-handling” and the Fed glucose levels ([4]; after 28 days, vehicle vs JBSNF-000088, wild-type or knockout) was “not different”. The glucose tolerance ([4]; treated wild-type mice vs vehicle treated) was “improvement in glucose tolerance”, the “plasma MNA” value ([4]; wild-type animals, one hour after last administration, 28-day treatment) was “significant reduction in plasma MNA” and the fed insulin levels ([4]; wild-type mice, four weeks, not statistically significant) was “trend to reduced insulin levels”. The food intake ([4]; wild-type or knockout animals, four weeks) was “no change in food intake”, the “E% (agonistic), ADRA1A” value ([5]; 10 µM) was -2% and the inhibition at 10 µM ([5]; read-out: I% (antagonistic or inhibitory), ADRA1A) was -3%. The “E% (agonistic), CB2” value ([6]; 10 µM) was -7%, the inhibition at 10 µM ([6]; read-out: I% (antagonistic or inhibitory), CB2) was 1% and the “E% (agonistic), 5HT1A” value ([7]; 10 µM) was 5%. For the same compound, the inhibition at 10 µM ([7]; read-out: I% (antagonistic or inhibitory), 5HT1A) was -13%, the “E% (agonistic), 5HT2B” value ([8]; 10 µM) was 4% and the inhibition at 10 µM ([8]; read-out: I% (antagonistic or inhibitory), 5HT2B) was 13%. For the same compound, the “I% (antagonistic or inhibitory), SK+Ca channel” value [9] was -4%, the “Cyp Inhibition” value [10] was >20 µM and the “Metabolic stability mouse microsomes (% remaining)” value [11] was 79%. The “plasma clearance as share of hepatic blood flow in mice” value [12] was “approximately 25%”, the solubility [13] was > 200 µM and the Papp [14] was 25.2 ×10⁻⁶ cm/s. The efflux ratio [14] was 1.04.
